Source: patent US20150368209A1, “4-Pyrimidinylamino-benzenesulfonamide derivatives and their use for the inhibition of polo-like kinase 1 (PLK1) for the treatment of cancer and their use for the treatment of bacterial infections” (VICHEM CHEMIE KUTATÓ KFT., priority 2013, published 2015)
Converted amounts (≈) assume the structure as drawn.

Key:
M. tuberculosis H37Rv = test: Resazurin reduction microtiter assay (REMA), growth inhibition and MIC determination; format: cell-based; conditions: Mycobacterium tuberculosis, 168 h, 7 days at 37° C.; for inhibition at 20 µM: at 20 uM compound, read-out: H37Rv inh % at 20 uM
human PLK1 kinase domain = target: T1, human PLK1 kinase domain (Homo sapiens, UniProt P53350); test: In vitro PLK1 assay (IMAP fluorescence polarization kinase assay); format: biochemical; conditions: for inhibition at 10 µM: at 10 uM compound; for IC50: 30 nM PLK1 kinase domain, 16 μM ATP (=Kmapp), 90 min at room temperature
T1 construct: Each reaction consisted of 30 nM enzyme PLK1 kinase domain
Protocol: The activity of the compounds described in the present invention was determined using a commercially available IMAP Screening Express Assay Kit (Molecular devices).
This method measures the change in the fluorescent polarization of a fluorescently-labeled peptide due to the effect of human PLK1 kinase domain on it. PLK1 kinase assays were performed in low protein binding 384-well plates (Corning 3676). Test compounds were diluted in 100% DMSO to 5 mM stock concentration, the further dilutions were made in H2O or 100% DMSO to desirable concentrations.
Each reaction consisted of 30 nM enzyme PLK1 kinase domain, 400 nM 5TAMRA-RGSFNDTLDFD-NH2 (Genecust Europe), 16 μM ATP (=Kmapp, Sigma-Aldrich) and kinase buffer: 20 mM HEPES pH 7.5 (Sigma-Aldrich), 1 mM DTT (Sigma-Aldrich), 10 mM MgCl2 (Sigma-Aldrich), 0.01% Triton X-100 (Sigma-Aldrich).
For each reaction, 4 or 6 μl containing 5TAMRA-RGSFNDTLDFD-NH2, ATP and kinase buffer were combined with 2 μl diluted compound in H2O or 0.04 μl compound in 100% DMSO. The kinase reaction was started by the addition of 2 μl diluted enzyme. The reaction was allowed to run for 90 minutes at room temperature. The reaction was stopped by adding 15 μl IMAP beads (1:1200 beads in progressive (40% buffer A, 60% buffer B) 1× buffer). After an additional 60 minutes, fluorescent polarization (Ex: 550-10 nm, Em: 590-10 nm, Dich: 561 nm) was measured using Analyst GT multimode reader (Molecular Devices).

T1 sequence (P53350 53-305 limits assumed): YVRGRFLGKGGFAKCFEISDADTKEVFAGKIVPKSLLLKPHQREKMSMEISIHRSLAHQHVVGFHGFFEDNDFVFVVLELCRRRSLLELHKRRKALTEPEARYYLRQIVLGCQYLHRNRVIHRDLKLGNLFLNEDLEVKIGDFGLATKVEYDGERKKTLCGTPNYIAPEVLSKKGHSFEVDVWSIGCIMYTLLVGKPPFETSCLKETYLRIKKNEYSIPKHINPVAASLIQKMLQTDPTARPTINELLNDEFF

| Structure (SMILES) | inhibition at 20 µM (M. tuberculosis H37Rv) | inhibition at 10 µM (human PLK1 kinase domain) | MIC (M. tuberculosis H37Rv; two-fold serial dilution from 100 to 0.16 μM, read-out: H37Rv MIC90) | IC50 (human PLK1 kinase domain) |
| --- | --- | --- | --- | --- |
| Cc1noc(NS(=O)(=O)c2ccc(Nc3cc(-c4ccccc4Oc4ccccc4)ncn3)cc2)c1C [Example 4, N-(3,4-Dimethyl-isoxazol-5-yl)-4-[6-(2-phenoxy-phenyl)-pyrimidin-4-ylamino]-benzenesulfonamide] | 39% | 52.7% |  |  |
| Cc1noc(NS(=O)(=O)c2ccc(Nc3cc(-c4ccccc4C(F)(F)F)ncn3)cc2)c1C [Example 1, N-(3,4-Dimethyl-isoxazol-5-yl)-4-[6-(2-trifluoromethyl-phenyl)-pyrimidin-4-ylamino]-benzenesulfonamide] | 101% | 96.1% | 2.77 µM (≈ 1.35 µg/mL) | 1.45 µM |
| COc1cc(Cl)ccc1-c1cc(Nc2ccc(S(=O)(=O)Nc3onc(C)c3C)cc2)ncn1 [Example 28, 4-[6-(4-Chloro-2-methoxy-phenyl)-pyrimidin-4-ylamino]-N-(3,4-dimethyl-isoxazol-5-yl)-benzenesulfonamide] | 0.6% | 61.9% |  | 0.059 µM |
| Cc1noc(NS(=O)(=O)c2ccc(Nc3cc(-c4cccc(C#N)c4)ncn3)cc2)c1C [Example 34, 4-[6-(3-Cyano-phenyl)-pyrimidin-4-ylamino]-N-(3,4-dimethyl-isoxazol-5-yl)-benzenesulfonamide] | -4.3% | 58.5% |  |  |
| Cc1noc(NS(=O)(=O)c2ccc(Nc3cc(-c4ccc(N)cc4)ncn3)cc2)c1C [Example 45, 4-[6-(4-Amino-phenyl)-pyrimidin-4-ylamino]-N-(3,4-dimethyl-isoxazol-5-yl)-benzenesulfonamide] |  | 88% |  | 7.34 µM |
| COc1ccc(F)c(F)c1-c1cc(Nc2ccc(S(=O)(=O)Nc3onc(C)c3C)cc2)ncn1 [Example 14, 4-[6-(2,3-Difluoro-6-methoxy-phenyl)-pyrimidin-4-ylamino]-N-(3,4-dimethyl-isoxazol-5-yl)-benzenesulfonamide] |  | 55.4% |  |  |
| Cc1noc(NS(=O)(=O)c2ccc(Nc3cc(-c4ccc(C(N)=O)cc4)ncn3)cc2)c1C [Example 46, 4-{6-[4-(3,4-Dimethyl-isoxazol-5-ylsulfamoyl)-phenylamino]-pyrimidin-4-yl}-benzamide] |  | 24% |  |  |
| Cc1noc(NS(=O)(=O)c2ccc(Nc3cc(-c4ccccc4COc4ccc(OC(F)(F)F)cc4)ncn3)cc2)c1C [Example 30, N-(3,4-Dimethyl-isoxazol-5-yl)-4-{6-[2-(4-trifluoromethoxy-phenoxymethyl)-phenyl]-pyrimidin-4-ylamino}-benzenesulfonamide] |  | 0% |  |  |
| Cc1ccc(COCc2cc(C)cc(-c3cc(Nc4ccc(S(=O)(=O)Nc5onc(C)c5C)cc4)ncn3)c2)cc1 [Example 47, N-(3,4-Dimethyl-isoxazol-5-yl)-4-{6-[3-methyl-5-(4-methyl-benzyloxymethyl)-phenyl]-pyrimidin-4-ylamino}-benzenesulfonamide] |  | -4% |  |  |
| Cc1noc(NS(=O)(=O)c2ccc(Nc3cc(-c4cccc(N)c4)ncn3)cc2)c1C [Example 44, 4-[6-(3-Amino-phenyl)-pyrimidin-4-ylamino]-N-(3,4-dimethyl-isoxazol-5-yl)-benzenesulfonamide] |  | 68% |  | 11.4 µM |
| COc1ccccc1-c1cc(Nc2ccc(S(=O)(=O)Nc3onc(C)c3C)cc2)ncn1 [Example 31, N-(3,4-Dimethyl-isoxazol-5-yl)-4-[6-(2-methoxy-phenyl)-pyrimidin-4-ylamino]-benzenesulfonamide] |  | 79.8% |  | 2.47 µM |
| Cc1noc(NS(=O)(=O)c2ccc(Nc3cc(-c4ccc(N(C)C)cc4)ncn3)cc2)c1C [Example 48, 4-[6-(4-Dimethylamino-phenyl)-pyrimidin-4-ylamino]-N-(3,4-dimethyl-isoxazol-5-yl)-benzenesulfonamide] |  | 87% |  | 14.2 µM |
